In one test the test system is Laodelphax striatellus. In words: Insecticidal test on Laodelphax striatellus (rice seedling dip). Conditions: 192 h, rice seedlings dipped 30 seconds, 3rd-instar larvae, 8 days after inoculation, read-out: insecticidal efficacy (corrected mortality rate), activity level. It is filed as in vivo. An excerpt: Insecticidal Test on Laodelphax striatellus
The condensed heterocyclic compounds represented by the general formula (1) of the present invention or salts thereof were separately dispersed in water and diluted to 500 ppm. Rice plant seedlings (variety: Nihonbare) were dipped in the agrochemical dispersions for 30 seconds. After air-dried, each seedling was put into a separate glass test tube and inoculated with ten 3rd-instar larvae of Laodelphax striatellus, and then the glass test tubes were capped with cotton plugs. At 8 days after the inoculation, the numbers of surviving larvae and dead larvae were counted, the corrected mortality rate was calculated according to the formula shown below, and the insecticidal efficacy was evaluated according to the criteria shown below. Corrected mortality rate (%)=100×(Survival rate in a non-treatment plot−Survival rate in a treatment plot)/Survival rate in a non-treatment plot [Math. 2] Corrected Mortality Rate A: the corrected mortality rate is 100%. B: the corrected mortality rate is 90 to 99%. C: the corrected mortality rate is 80 to 89%. D: the corrected mortality rate is 50 to 79%.

In a further test the test system is Plutella xylostella. In words: Insecticidal test on Plutella xylostella (dip of Chinese cabbage seedlings with laid eggs). Particulars: 144 h, seedlings with laid eggs dipped about 30 seconds, 25° C., 6 days after dip treatment, criteria of Test Example 2, read-out: insecticidal efficacy (corrected mortality rate), activity level. It is filed as in vivo. An excerpt: Insecticidal Test on Plutella xylostella
Adults of Plutella xylostella were released onto Chinese cabbage seedlings and allowed to lay eggs thereon. At 2 days after the release of the adults, the Chinese cabbage seedlings with laid eggs were dipped for about 30 seconds in agrochemical dispersions diluted to 500 ppm, each of which contained a different condensed heterocyclic compound represented by the general formula (1) of the present invention as an active ingredient. After air-dried, the seedlings were kept in a thermostatic chamber at 25° C. At 6 days after the dip treatment, the number of hatched larvae per plot was counted, the mortality rate was calculated according to the formula shown below, and the insecticidal efficacy was evaluated according to the criteria of Test Example 2. This test was conducted in triplicate using 10 adults of Plutella xylostella per plot. Corrected mortality rate (%)=100×(Number of hatched larvae in a non-treatment plot−Number of hatched larvae in a treatment plot)/Number of hatched larvae in a non-treatment plot [Math. 3]

These results are taken from patent US11064699B2, “Condensed heterocyclic compound or salt thereof, agricultural and horticultural insecticide comprising the compound or the salt, and method for using the insecticide” (Nihon Nohyaku Co., Ltd., priority 2017, dated 2021).

Structures are written as SMILES.

For the molecule `CCS(=O)(=O)c1cc2ccc(C(F)(F)F)cc2nc1-c1nnc2cc(C(F)(F)C(F)(F)F)ncn12` [Compound 4-27, 3-(ethylsulfonyl)-2-(7-pentafluoroethyl)-[1,2,4]triazolo[4,3-c]pyrimidin-3-yl-7-(trifluoromethyl) quinoline], the mortality at 500 ppm in the test on Laodelphax striatellus and in the test with Plutella xylostella was 100% throughout.

Take `CCS(=O)(=O)c1cc(-c2cccc(C(F)(F)F)c2)cnc1-c1nnc2cc(C(F)(F)F)ncn12` [Compound 2-36, 3-(3-(ethylsulfonyl)-5-(3-(trifluoromethyl)phenyl)pyridin-2-yl)-(7-trifluoromethyl)-[1,2,4]Triazolo[4,3-c]Pyrimidine]: the mortality at 500 ppm in the test with Laodelphax striatellus and with Plutella xylostella was 100% throughout.

Usually mortality stands for the share of the test organisms that died.
